Patent US10941136B2, “Quinazoline derivative or its salt and pharmaceutical composition comprising the same” (YUHAN CORPORATION, priority 2016, dated 2021)

Experiments:
Type in all cases: biochemical
PI3Kδ (p110δ/p85α)(h) = biological target: T1, PI3Kδ (p110δ/p85α)(h) (Homo sapiens, UniProt O00329); experiment: PI3K-HTRF in vitro enzyme assay, PI3Kδ; conditions: enzyme 0.1 μg/ml
T1 construct: purchased Upstate (Millipore Co, Billerica, Mass., USA) #14˜604
Protocol: (§1) The compounds of the present invention were tested for the activity of phosphatidylinositol 3-kinase delta (PI3K) by using a PI3K enzyme-homogeneous time resolved fluorescence (PI3K-HTRF) kit, which is available under Upstate™ kit (Millipore Co, Billerica, Mass., USA). This kit system measures indirectly the amount of PIP3 produced via PI3K by detecting competitive inhibition of fluorescence complex formation.
(§2) There were used three kinds of buffer solutions, i.e., reaction buffer, stop solution, and detection solution. The reaction buffer was prepared by diluting Reaction Buffer (provided in Update™ kit) with distilled water 4 times and adding DTT to a concentration of 5 mM. The stop solution was prepared by combining STOP A and B Solutions (provided in Update™ kit) in a ratio of 3:1. The detection solution was prepared by combining Detection Solution A, B and C (provided in Update™ kit) in a ratio of 1:1:18. A substrate solution and an ATP solution were prepared by diluting the 1 mM PIP2 (phosphatidyl inositol 4,5 bi-phosphate) stock solution (provided in Update™ kit) and 10 mM ATP (Sigma-aldrich Co., St. Louis, Mo., USA) stock solution with the reaction buffer to concentrations of 20 μM and 40 μM, respectively. An enzyme solution was prepared by diluting PI3Kδ (#14˜604; Upstate™ kit) with the substrate solution to the concentration of 0.2 μg/ml (final reaction concentration: 0.1 μg/ml).
(§3) The test groups were prepared by dissolving each compound in 100% DMSO at 40× the final concentration and then diluting 10-fold with the reaction buffer. 5 μl of each diluted test group solution was transferred to a 384 well low flange white flat bottom microplate (#3572, Corning Life Sciences, Lowell, Mass., USA). We performed centrifuge (1 minute, 1000 rpm) and shaking for 2 minutes after every solution-adding step in this experiment. Next, 10 μl of the enzyme solution was added to each well. A mixed solution of the substrate solution (10 μl) plus 5 μl of the 100% DMSO diluted solution without test compound (i.e., 10% DMSO solution) was used as a negative control. And also, a mixed solution of enzyme solution (10 μl) plus 5 μl of the 100% DMSO diluted solution without test compound (i.e., 10% DMSO solution) was used as a positive control. This plate was pre-incubated for 10 minutes in a 25° C. incubator. After the pre-incubation, the phosphorylation reaction was induced by adding 5 μl of the ATP solution and the plate was incubated for 30 minutes in a 25° C. incubator. This enzyme reaction was stopped by 5 μl of the stop solution and then 5 μl of the detection solution was added thereto. To obtain enough fluorescence responses, the plate was incubated for 2 hours in a 25° C. incubator protected from light.
(§4) The time-resolved fluorescence resonance energy transfer (TR-FRET) rate was measured (emission wavelength: 665 nm, 620 nm, excitation wavelength: 313 nm) by using a Flexstation3 Micro plate reader (Molecular Devices, USA). TR-FRET Rate was calculated based on the Equation 1 and using these TR-FRET Rates, % inhibition rate of each compound was calculated based on the Equation 2. The IC50 values, i.e., the concentration of a test compound that inhibits 50% of PI3Kδ activity in vitro, are generated by Softmax program (Molecular Devices, USA). TR-FRET Rate=(Signal at 665 nm emission wavelength/Signal at 620 nm emission wavelength)×10000 <Equation 1> % Inhibition Rate=[(TR-FRET Rate of the test group−TR-FRET Rate of the positive control group)/(TR-FRET Rate of the negative control group−TR-FRET Rate of the positive control group)]×100 <Equation 2>

PI3Kα (p110α/p85α)(h) = biological target: T2, PI3Kα (p110α/p85α)(h) (Homo sapiens, UniProt P42336); experiment: PI3K-HTRF in vitro enzyme assay, PI3Kα; conditions: enzyme 0.1 μg/ml
T2 construct: purchased Upstate (Millipore Co) #14-602
T2 sequence (P42336 whole entry): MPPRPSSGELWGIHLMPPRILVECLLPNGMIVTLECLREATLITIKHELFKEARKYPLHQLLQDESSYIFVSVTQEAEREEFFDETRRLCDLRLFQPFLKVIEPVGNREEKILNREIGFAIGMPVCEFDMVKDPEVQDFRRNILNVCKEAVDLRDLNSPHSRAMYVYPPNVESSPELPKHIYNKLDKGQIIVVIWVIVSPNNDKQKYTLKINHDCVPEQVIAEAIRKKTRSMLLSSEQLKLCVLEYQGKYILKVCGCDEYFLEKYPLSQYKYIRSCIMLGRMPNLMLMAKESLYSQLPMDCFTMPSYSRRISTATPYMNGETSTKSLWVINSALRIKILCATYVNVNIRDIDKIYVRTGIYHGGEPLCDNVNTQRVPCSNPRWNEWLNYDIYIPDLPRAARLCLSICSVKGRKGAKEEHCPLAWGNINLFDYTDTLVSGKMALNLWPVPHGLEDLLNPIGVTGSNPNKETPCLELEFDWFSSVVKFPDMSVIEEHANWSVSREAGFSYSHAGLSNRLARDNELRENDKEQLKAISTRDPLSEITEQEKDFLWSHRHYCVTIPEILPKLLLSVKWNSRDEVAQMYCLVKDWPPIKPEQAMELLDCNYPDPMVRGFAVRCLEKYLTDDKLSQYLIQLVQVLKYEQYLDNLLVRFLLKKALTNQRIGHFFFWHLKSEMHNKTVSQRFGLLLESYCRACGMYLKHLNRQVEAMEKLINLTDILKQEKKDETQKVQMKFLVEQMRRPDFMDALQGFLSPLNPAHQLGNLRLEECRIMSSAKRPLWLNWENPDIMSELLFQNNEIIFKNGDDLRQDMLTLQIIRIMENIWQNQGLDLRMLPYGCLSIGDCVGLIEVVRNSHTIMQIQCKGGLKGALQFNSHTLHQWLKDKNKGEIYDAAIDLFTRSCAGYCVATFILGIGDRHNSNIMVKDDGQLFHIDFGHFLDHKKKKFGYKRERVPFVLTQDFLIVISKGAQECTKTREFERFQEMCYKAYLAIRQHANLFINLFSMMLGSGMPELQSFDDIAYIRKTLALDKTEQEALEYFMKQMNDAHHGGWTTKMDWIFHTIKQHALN
T2 sequence (P27986 whole entry partner): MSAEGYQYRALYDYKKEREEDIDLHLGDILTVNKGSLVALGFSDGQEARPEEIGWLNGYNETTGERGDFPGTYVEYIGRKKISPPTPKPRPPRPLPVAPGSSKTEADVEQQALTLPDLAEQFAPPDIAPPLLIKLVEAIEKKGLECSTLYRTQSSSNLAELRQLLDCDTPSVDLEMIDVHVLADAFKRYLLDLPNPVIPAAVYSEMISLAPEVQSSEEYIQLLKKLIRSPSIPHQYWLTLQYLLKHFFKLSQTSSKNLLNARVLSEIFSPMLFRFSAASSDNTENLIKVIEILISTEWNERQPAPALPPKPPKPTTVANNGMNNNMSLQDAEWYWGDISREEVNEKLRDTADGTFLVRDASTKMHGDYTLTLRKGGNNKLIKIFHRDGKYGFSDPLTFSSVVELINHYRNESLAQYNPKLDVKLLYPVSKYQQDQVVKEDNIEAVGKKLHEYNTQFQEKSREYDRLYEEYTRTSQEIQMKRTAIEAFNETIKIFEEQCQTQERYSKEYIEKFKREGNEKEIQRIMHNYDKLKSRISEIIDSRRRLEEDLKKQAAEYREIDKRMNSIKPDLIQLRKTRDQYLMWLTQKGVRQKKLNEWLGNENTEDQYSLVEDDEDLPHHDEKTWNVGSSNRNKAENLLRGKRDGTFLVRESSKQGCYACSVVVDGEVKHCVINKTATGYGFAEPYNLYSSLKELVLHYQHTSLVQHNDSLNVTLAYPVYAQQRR
Protocol: as §1, §2, §3, §4
(§5) The compounds of the present invention were assayed for the activities of PI3K subtypes, i.e., PI3Kα, PI3Kβ and PI3Kγ, using the same procedures as in Experimental Example 1. […]

PI3Kγ (p120γ)(h) = biological target: T3, PI3Kγ (p120γ)(h) (Homo sapiens, UniProt P48736); experiment: PI3K-HTRF in vitro enzyme assay, PI3Kγ; conditions: enzyme 0.4 μg/ml
T3 construct: purchased Upstate (Millipore Co) #14-558
T3 sequence (P48736 whole entry): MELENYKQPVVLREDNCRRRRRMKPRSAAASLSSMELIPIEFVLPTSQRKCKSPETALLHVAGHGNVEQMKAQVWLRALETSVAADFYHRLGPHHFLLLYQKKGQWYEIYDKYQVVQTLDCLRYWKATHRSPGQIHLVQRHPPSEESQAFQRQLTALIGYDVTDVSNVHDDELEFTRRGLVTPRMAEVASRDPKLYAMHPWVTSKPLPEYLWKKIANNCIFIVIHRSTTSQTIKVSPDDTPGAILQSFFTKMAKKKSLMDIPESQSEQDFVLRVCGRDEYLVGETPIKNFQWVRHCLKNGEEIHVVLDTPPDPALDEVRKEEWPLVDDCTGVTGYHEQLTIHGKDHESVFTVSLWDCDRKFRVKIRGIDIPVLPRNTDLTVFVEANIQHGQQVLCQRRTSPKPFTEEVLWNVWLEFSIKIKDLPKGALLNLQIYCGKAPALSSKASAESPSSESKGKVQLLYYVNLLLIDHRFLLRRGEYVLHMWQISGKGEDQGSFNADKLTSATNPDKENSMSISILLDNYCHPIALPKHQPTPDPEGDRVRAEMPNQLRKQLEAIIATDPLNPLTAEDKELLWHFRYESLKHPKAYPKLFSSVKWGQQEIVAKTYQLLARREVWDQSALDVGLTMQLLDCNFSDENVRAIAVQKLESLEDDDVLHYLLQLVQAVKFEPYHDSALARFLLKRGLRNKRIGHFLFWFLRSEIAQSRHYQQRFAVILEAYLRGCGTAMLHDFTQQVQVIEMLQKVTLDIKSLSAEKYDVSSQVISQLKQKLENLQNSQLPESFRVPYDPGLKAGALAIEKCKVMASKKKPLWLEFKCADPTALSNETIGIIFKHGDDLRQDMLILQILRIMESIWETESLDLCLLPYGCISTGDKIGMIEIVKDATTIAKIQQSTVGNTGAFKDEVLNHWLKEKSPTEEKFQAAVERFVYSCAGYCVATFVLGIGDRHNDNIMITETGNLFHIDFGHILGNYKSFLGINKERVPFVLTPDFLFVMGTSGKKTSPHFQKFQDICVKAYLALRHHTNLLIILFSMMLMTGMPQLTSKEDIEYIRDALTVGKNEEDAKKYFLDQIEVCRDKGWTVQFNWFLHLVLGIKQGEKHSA
Protocol: as §1, §2, §3, §4, §5

PI3Kβ (p110β/p85α)(h) = biological target: T4, PI3Kβ (p110β/p85α)(h) (Homo sapiens, UniProt P42338); experiment: PI3K-HTRF in vitro enzyme assay, PI3Kβ; conditions: enzyme 0.4 μg/ml
T4 construct: purchased Upstate (Millipore Co) #14-603
T4 sequence (P42338 whole entry): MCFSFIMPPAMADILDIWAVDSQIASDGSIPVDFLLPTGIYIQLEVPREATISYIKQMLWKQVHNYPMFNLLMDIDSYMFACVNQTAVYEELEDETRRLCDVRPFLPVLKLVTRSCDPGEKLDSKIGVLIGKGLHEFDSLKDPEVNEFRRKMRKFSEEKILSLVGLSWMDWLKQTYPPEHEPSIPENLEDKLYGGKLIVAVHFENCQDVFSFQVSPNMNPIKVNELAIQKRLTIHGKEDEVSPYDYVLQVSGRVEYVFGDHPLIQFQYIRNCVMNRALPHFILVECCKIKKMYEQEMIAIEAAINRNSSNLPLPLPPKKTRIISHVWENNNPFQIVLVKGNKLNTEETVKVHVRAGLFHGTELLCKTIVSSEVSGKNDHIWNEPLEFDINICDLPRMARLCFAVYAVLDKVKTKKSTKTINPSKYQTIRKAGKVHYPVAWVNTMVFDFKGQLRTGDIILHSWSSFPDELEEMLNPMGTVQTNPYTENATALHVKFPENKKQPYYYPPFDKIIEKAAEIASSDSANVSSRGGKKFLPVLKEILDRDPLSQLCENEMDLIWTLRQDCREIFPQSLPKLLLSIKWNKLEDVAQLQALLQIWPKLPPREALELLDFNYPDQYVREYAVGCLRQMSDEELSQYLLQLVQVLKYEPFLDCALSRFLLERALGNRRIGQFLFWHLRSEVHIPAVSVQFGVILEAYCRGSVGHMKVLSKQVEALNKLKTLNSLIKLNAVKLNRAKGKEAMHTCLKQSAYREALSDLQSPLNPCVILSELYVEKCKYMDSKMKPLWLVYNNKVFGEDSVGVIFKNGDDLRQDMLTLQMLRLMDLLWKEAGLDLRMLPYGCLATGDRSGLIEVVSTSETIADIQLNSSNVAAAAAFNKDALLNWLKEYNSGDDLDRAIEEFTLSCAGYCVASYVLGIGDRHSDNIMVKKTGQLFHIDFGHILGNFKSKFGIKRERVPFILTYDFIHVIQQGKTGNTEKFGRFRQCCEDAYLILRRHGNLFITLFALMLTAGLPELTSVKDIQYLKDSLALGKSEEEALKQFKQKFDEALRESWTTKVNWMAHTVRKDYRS
T4 sequence (P27986 whole entry partner): as the sequence (P27986 whole entry partner) above
Protocol: as §1, §2, §3, §4, §5

T1 sequence (O00329 whole entry): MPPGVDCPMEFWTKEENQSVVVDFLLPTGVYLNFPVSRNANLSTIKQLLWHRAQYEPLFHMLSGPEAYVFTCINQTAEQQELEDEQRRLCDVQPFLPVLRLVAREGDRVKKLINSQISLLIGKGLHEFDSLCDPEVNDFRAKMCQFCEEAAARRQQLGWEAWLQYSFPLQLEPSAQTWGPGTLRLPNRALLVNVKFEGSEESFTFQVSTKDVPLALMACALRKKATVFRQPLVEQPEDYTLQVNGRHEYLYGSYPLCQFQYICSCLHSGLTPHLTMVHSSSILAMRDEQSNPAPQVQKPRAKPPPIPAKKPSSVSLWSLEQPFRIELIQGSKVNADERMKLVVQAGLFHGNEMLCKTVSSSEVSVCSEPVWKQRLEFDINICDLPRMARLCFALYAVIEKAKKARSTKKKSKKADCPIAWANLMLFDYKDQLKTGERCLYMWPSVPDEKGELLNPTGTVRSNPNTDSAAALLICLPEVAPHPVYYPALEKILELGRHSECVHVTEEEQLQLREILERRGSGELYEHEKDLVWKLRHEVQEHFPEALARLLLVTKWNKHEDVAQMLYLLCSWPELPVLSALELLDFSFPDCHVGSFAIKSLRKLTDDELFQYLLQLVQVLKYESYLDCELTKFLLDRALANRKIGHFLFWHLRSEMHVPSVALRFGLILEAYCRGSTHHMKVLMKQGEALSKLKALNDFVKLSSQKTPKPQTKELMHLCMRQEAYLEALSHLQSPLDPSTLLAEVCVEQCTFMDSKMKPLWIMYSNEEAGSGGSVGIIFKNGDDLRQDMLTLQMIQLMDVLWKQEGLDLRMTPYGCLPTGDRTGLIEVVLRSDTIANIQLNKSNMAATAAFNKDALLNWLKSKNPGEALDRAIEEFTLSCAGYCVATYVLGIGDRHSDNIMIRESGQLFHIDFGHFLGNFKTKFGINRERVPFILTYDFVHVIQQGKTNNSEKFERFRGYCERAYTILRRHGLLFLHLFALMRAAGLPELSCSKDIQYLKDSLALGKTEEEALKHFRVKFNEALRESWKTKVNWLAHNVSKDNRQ
T1 sequence (P27986 whole entry partner): as the sequence (P27986 whole entry partner) above

| SMILES | IC50 (PI3Kδ (p110δ/p85α)(h)) | IC50 (PI3Kα (p110α/p85α)(h)) | IC50 (PI3Kγ (p120γ)(h)) | IC50 (PI3Kβ (p110β/p85α)(h)) |
| --- | --- | --- | --- | --- |
| C[C@H](Nc1ncnc2ccc(C#N)cc12)c1nc2cccc(-c3cnc(N)nc3)c2c(=O)n1-c1ccccc1 [Example 2, (S)-4-((1-(5-(2-aminopyrimidin-5-yl)-4-oxo-3-phenyl-3,4-dihydroquinazolin-2-yl)ethyl)amino)quinazoline-6-carbonitrile] | 4 nM | 598 nM | 117 nM | 6710 nM |
| CCC[C@H](Nc1ncnc2ccc(C#N)cc12)c1nc2cccc(-c3cnc(OC)nc3)c2c(=O)n1-c1ccccc1 [Example 10, (S)-4-((1-(5-(2-methoxypyrimidin-5-yl)-4-oxo-3-phenyl-3,4-dihydroquinazolin-2-yl)butyl)amino)quinazoline-6-carbonitrile] | 17 nM | 3420 nM | 465 nM | 7500 nM |
| CCC[C@H](Nc1ncnc2ccc(C#N)cc12)c1nc2cccc(-c3cnc(OCC)nc3)c2c(=O)n1-c1ccccc1 [Example 11, (S)-4-((1-(5-(2-ethoxypyrimidin-5-yl)-4-oxo-3-phenyl-3,4-dihydroquinazolin-2-yl)butyl)amino)quinazoline-6-carbonitrile] | 16 nM | 4740 nM | 432 nM | 8950 nM |
| CCC[C@H](Nc1ncnc2ccc(C#N)cc12)c1nc2cccc(-c3cnc(N)nc3)c2c(=O)n1-c1ccccc1 [Example 12, (S)-4-((1-(5-(2-aminopyrimidin-5-yl)-4-oxo-3-phenyl-3,4-dihydroquinazolin-2-yl)butyl)amino)quinazoline-6-carbonitrile] | 6 nM | 621 nM | 108 nM | 3060 nM |
| C[C@H](Nc1ncnc2ccc(C#N)cc12)c1nc2cccc(-c3cncnc3)c2c(=O)n1C1CC1 [Example 17, (S)-4-((1-(3-cyclopropyl-4-oxo-5-(pyrimidin-5-yl)-3,4-dihydroquinazolin-2-yl)ethyl)amino)quinazoline-6-carbonitrile] | 10 nM | 2640 nM | 947 nM | 3820 nM |
| COc1ncc(-c2cccc3nc([C@H](C)Nc4ncnc5ccc(C#N)cc45)n(C4CC4)c(=O)c23)cn1 [Example 18, (S)-4-((1-(3-cyclopropyl-5-(2-methoxypyrimidin-5-yl)-4-oxo-3,4-dihydroquinazolin-2-yl)ethyl)amino)quinazoline-6-carbonitrile] | 19 nM | 2710 nM | 771 nM | 5790 nM |
| CCOc1ncc(-c2cccc3nc([C@H](C)Nc4ncnc5ccc(C#N)cc45)n(C4CC4)c(=O)c23)cn1 [Example 19, (S)-4-((1-(3-cyclopropyl-5-(2-ethoxypyrimidin-5-yl)-4-oxo-3,4-dihydroquinazolin-2-yl)ethyl)amino)quinazoline-6-carbonitrile] | 21 nM | 2020 nM | 593 nM | 6730 nM |
| CC[C@H](Nc1ncnc2ccc(C#N)cc12)c1nc2cccc(-c3cncnc3)c2c(=O)n1C1CC1 [Example 20, (S)-4-((1-(3-cyclopropyl-4-oxo-5-(pyrimidin-5-yl)-3,4-dihydroquinazolin-2-yl)propyl)amino)quinazoline-6-carbonitrile] | 15 nM | 2440 nM | 819 nM | 8950 nM |
| CC[C@H](Nc1ncnc2ccc(C#N)cc12)c1nc2cccc(-c3cnc(N)nc3)c2c(=O)n1C1CC1 [Example 21, (S)-4-((1-(5-(2-aminopyrimidin-5-yl)-3-cyclopropyl-4-oxo-3,4-dihydroquinazolin-2-yl)propyl)amino)quinazoline-6-carbonitrile] | 13 nM | 650 nM | 371 nM | 3730 nM |
| CC[C@H](Nc1ncnc2cccc(F)c12)c1nc2cccc(-c3cnc(N)nc3)c2c(=O)n1-c1ccccc1 [Example 25, (S)-5-(2-aminopyrimidin-5-yl)-2-(1-((5-fluoroquinazolin-4-yl)amino)propyl)-3-phenylquinazolin-4(3H)-one] | 10 nM | 1460 nM | 1230 nM | 9590 nM |
| CC(C)[C@H](Nc1ncnc2cccc(F)c12)c1nc2cccc(-c3cnc(N)nc3)c2c(=O)n1-c1ccccc1 [Example 29, (S)-5-(2-aminopyrimidin-5-yl)-2-(1-((5-fluoroquinazolin-4-yl)amino)-2-methylpropyl)-3-phenylquinazolin-4(3H)-one] | 13 nM | 2010 nM | 7610 nM | – |

Next, values leading:

| IC50 (PI3Kδ (p110δ/p85α)(h)) | IC50 (PI3Kα (p110α/p85α)(h)) | IC50 (PI3Kγ (p120γ)(h)) | IC50 (PI3Kβ (p110β/p85α)(h)) | SMILES |
| --- | --- | --- | --- | --- |
| 19 nM | 5300 nM | 2640 nM | – | O=c1c2c(-c3cncnc3)cccc2nc([C@@H](Nc2ncnc3cccc(F)c23)C2CC2)n1-c1ccccc1 [Example 30, (S)-2-(cyclopropyl((5-fluoroquinazolin-4-yl)amino)methyl)-3-phenyl-5-(pyrimidin-5-yl)quinazolin-4(3H)-one] |
| 3 nM | 652 nM | 442 nM | 9310 nM | Nc1ncc(-c2cccc3nc([C@@H](Nc4ncnc5cccc(F)c45)C4CC4)n(-c4ccccc4)c(=O)c23)cn1 [Example 31, (S)-5-(2-aminopyrimidin-5-yl)-2-(cyclopropyl((5-fluoroquinazolin-4-yl)amino)methyl)-3-phenylquinazolin-4(3H)-one] |
| 5 nM | 730 nM | 86 nM | – | Cc1ncc(-c2cccc3cc([C@H](C)Nc4ncnc5ccc(C#N)cc45)n(-c4ccccc4)c(=O)c23)cn1 [Example 36, (S)-4-((1-(8-(2-methylpyrimidin-5-yl)-1-oxo-2-phenyl-1,2-dihydroisoquinolin-3-yl)ethyl)amino)quinazoline-6-carbonitrile] |
| 1 nM | 712 nM | 195 nM | – | CC[C@H](Nc1ncnc2ccc(C#N)cc12)c1cc2cccc(-c3cncnc3)c2c(=O)n1-c1ccccc1 [Example 39, (S)-4-((1-(1-oxo-2-phenyl-8-(pyrimidin-5-yl)-1,2-dihydroisoquinolin-3-yl)propyl)amino)quinazoline-6-carbonitrile] |
| 2 nM | 908 nM | 237 nM | – | CC[C@H](Nc1ncnc2ccc(C#N)cc12)c1cc2cccc(-c3cnc(OC)nc3)c2c(=O)n1-c1ccccc1 [Example 40, (S)-4-((1-(8-(2-methoxypyrimidin-5-yl)-1-oxo-2-phenyl-1,2-dihydroisoquinolin-3-yl)propyl)amino)quinazoline-6-carbonitrile] |
| 1 nM | 1630 nM | 654 nM | – | CC[C@H](Nc1ncnc2ccc(C#N)cc12)c1cc2cccc(-c3cnc(C)nc3)c2c(=O)n1-c1ccccc1 [Example 42, (S)-4-((1-(8-(2-methylpyrimidin-5-yl)-1-oxo-2-phenyl-1,2-dihydroisoquinolin-3-yl)propyl)amino)quinazoline-6-carbonitrile] |
| 18 nM | 5630 nM | 2010 nM | – | C[C@H](Nc1ncnc2cccc(F)c12)c1cc2cccc(-c3cnc(F)nc3)c2c(=O)n1-c1ccccc1 [Example 44, (S)-8-(2-fluoropyrimidin-5-yl)-3-(1-((5-fluoroquinazolin-4-yl)amino)ethyl)-2-phenylisoquinolin-1(2H)-one] |
